Assay results as given in BigSolDB 2.1.

NC(N)=O
solubility (mole fraction)
Settings	in ethanol	in isobutanol	in isopentanol	in isopropanol	in methanol	in n-butanol	in n-pentanol	in n-propanol	in water
293.15 K	0.0395	0.017	0.0146	0.0253	0.0845	0.0163	0.0137	0.0246	0.252
303.15 K	0.0548	0.0242	0.0162	0.0306	0.104	0.0209	0.0183	0.0402	0.294
318.15 K	0.0874	0.0302	0.026	0.0425	0.165	0.0292	0.0241	0.0384	0.36
333.15 K	0.127	0.0469	0.0368	0.058	0.225	0.0412	0.0354	0.0722	0.41
343.15 K	0.155	0.0529	0.0451	0.0669	0.266	0.0504	0.0424	0.0704	0.465
